In PubChem BioAssay (NCI):
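Grown in 96-well plates, cells were treated for 48 hours with each compound at five concentrations. Insufficient inhibition: endpoint recorded as highest concentration tested. TGI: total growth inhibition.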

How the values were obtained:
Test in all cases: NCI anticancer screen, dose series, 48 h
[1] = test system: EKVX NSCLC
[2] = test system: K-562 leukemia
[3] = test system: UACC-257 melanoma
[4] = test system: HCT-15 colon
[5] = test system: NCI-H23 lung
[6] = test system: LOX IMVI melanoma
[7] = test system: T-47D breast
[8] = test system: SNB-19 CNS
[9] = test system: SF-539 CNS
[10] = test system: CCRF-CEM leukemia
[11] = test system: BT-549 breast
[12] = test system: PC-3 prostate
[13] = test system: RPMI-8226 leukemia
[14] = test system: HL-60(TB) leukemia
[15] = test system: M14 melanoma
[16] = test system: NCI-H460 lung
[17] = test system: MDA-MB-435
[18] = test system: COLO 205 colon
[19] = test system: SF-295 CNS
[20] = test system: SW-620 colon
[21] = test system: NCI/ADR-RES ovarian
[22] = test system: MDA-MB-231 breast
[23] = test system: UACC-62 melanoma
[24] = test system: SK-MEL-28 melanoma
[25] = test system: TK-10 renal
[26] = test system: SK-OV-3 ovarian
[27] = test system: IGROV1 ovarian
[28] = test system: SNB-75 CNS
[29] = test system: HOP-92 NSCLC
[30] = test system: SK-MEL-5 melanoma
[31] = test system: MOLT-4 leukemia
[32] = test system: HCT-116 colon
[33] = test system: NCI-H226 lung
[34] = test system: 786-0 renal
[35] = test system: HS 578T breast
[36] = test system: OVCAR-3 ovarian
[37] = test system: NCI-H522 lung
[38] = test system: OVCAR-8 ovarian
[39] = test system: SF-268 CNS
[40] = test system: MALME-3M melanoma
[41] = test system: SN12C renal
[42] = test system: U251 CNS
[43] = test system: SR leukemia
[44] = test system: MCF7 breast
[45] = test system: OVCAR-4 ovarian
[46] = test system: ACHN renal
[47] = test system: OVCAR-5 ovarian
[48] = test system: UO-31 renal
[49] = test system: HT29 colon
[50] = test system: HCC-2998 colon
[51] = test system: A549 NSCLC
[52] = test system: CAKI-1 renal
[53] = test system: DU-145 prostate
[54] = test system: MDA-N
[55] = test system: A498 renal
[56] = test system: RXF 393 renal
[57] = test system: SK-MEL-2 melanoma
[58] = test system: KM12 colon
[59] = test system: HOP-62 NSCLC

For `CCCCCCCCCCCC[C@@H](O)[C@H]1CCC([C@H](O)CCCCC(=O)CCCCCCCC2=C[C@H](C)OC2=O)O1` (some centres undefined), the TGI [1] was greater than 50 µM, the TGI [2] was greater than 50 µM and the TGI [3] was greater than 50 µM. The TGI [4] was greater than 50 µM, the TGI [5] was greater than 50 µM and the TGI [6] was greater than 50 µM. For the same molecule, the TGI [7] was greater than 50 µM, the TGI [8] was greater than 50 µM and the TGI [9] was greater than 50 µM. It also gave a TGI [10] greater than 50 µM, a TGI [11] greater than 50 µM and a TGI [12] greater than 50 µM. For the same molecule, the TGI [13] was greater than 50 µM, the TGI [14] was greater than 28.8 µM and the TGI [15] was greater than 35.8 µM. It also gave a TGI [16] greater than 50 µM, a TGI [17] greater than 50 µM and a TGI [18] greater than 30 µM. It also gave a TGI [19] greater than 50 µM, a TGI [20] greater than 50 µM and a TGI [21] greater than 50 µM. The TGI [22] was greater than 50 µM, the TGI [23] was greater than 40.9 µM and the TGI [24] was greater than 50 µM. For the same molecule, the TGI [25] was greater than 50 µM, the TGI [26] was greater than 50 µM and the TGI [27] was greater than 50 µM. The TGI [28] was greater than 50 µM, the TGI [29] was greater than 50 µM and the TGI [30] was greater than 20.2 µM. It also gave a TGI [31] greater than 50 µM, a TGI [32] greater than 50 µM and a TGI [33] greater than 50 µM. The TGI [34] was greater than 50 µM, the TGI [35] was greater than 32.8 µM and the TGI [36] was greater than 50 µM. The TGI [37] was greater than 50 µM, the TGI [38] was greater than 50 µM and the TGI [39] was greater than 50 µM. The TGI [40] was greater than 50 µM, the TGI [41] was greater than 50 µM and the TGI [42] was greater than 50 µM. For the same molecule, the TGI [43] was 10.1 µM, the TGI [44] was greater than 50 µM and the TGI [45] was greater than 50 µM. It also gave a TGI [46] greater than 50 µM, a TGI [47] greater than 50 µM and a TGI [48] greater than 50 µM. For the same molecule, the TGI [49] was greater than 50 µM, the TGI [50] was greater than 50 µM and the TGI [51] was greater than 50 µM. For the same molecule, the TGI [52] was greater than 50 µM, the TGI [53] was greater than 50 µM and the TGI [54] was greater than 50 µM. The TGI [55] was greater than 50 µM, the TGI [56] was greater than 30.2 µM and the TGI [57] was greater than 50 µM. For the same molecule, the TGI [58] was greater than 50 µM.
In the case of `COc1ccc(N=NC(=O)NC(CC(C)C)C(N)=O)cc1` (centres undefined), the TGI [1] is reported as greater than 100 µM, the TGI [2] is reported as greater than 100 µM and the TGI [3] is reported as greater than 31.6 µM. For the same molecule, the TGI [4] was greater than 31.6 µM, the TGI [5] was greater than 100 µM and the TGI [7] was greater than 100 µM. For the same molecule, the TGI [8] was greater than 100 µM, the TGI [9] was greater than 31.6 µM and the TGI [10] was greater than 100 µM. For the same molecule, the TGI [11] was greater than 100 µM, the TGI [12] was greater than 100 µM and the TGI [13] was greater than 100 µM. The TGI [14] was greater than 100 µM, the TGI [59] was greater than 100 µM and the TGI [15] was greater than 100 µM. For the same molecule, the TGI [16] was greater than 31.6 µM, the TGI [17] was greater than 100 µM and the TGI [18] was 24.9 µM. For the same molecule, the TGI [19] was greater than 100 µM, the TGI [20] was greater than 100 µM and the TGI [21] was greater than 100 µM. The TGI [22] was greater than 31.6 µM, the TGI [23] was greater than 100 µM and the TGI [24] was greater than 100 µM. It also gave a TGI [25] greater than 31.6 µM, a TGI [26] greater than 100 µM and a TGI [27] greater than 100 µM. It also gave a TGI [28] greater than 100 µM, a TGI [29] greater than 31.6 µM and a TGI [30] greater than 100 µM. It also gave a TGI [31] greater than 100 µM, a TGI [32] greater than 31.6 µM and a TGI [33] greater than 100 µM. The TGI [34] was greater than 31.6 µM, the TGI [35] was greater than 100 µM and the TGI [36] was greater than 100 µM. It also gave a TGI [37] greater than 100 µM, a TGI [38] greater than 100 µM and a TGI [39] greater than 100 µM. The TGI [40] was greater than 100 µM, the TGI [41] was greater than 31.6 µM and the TGI [42] was greater than 100 µM. The TGI [43] was greater than 100 µM, the TGI [44] was greater than 31.6 µM and the TGI [45] was greater than 31.6 µM. The TGI [46] was greater than 31.6 µM, the TGI [47] was greater than 100 µM and the TGI [48] was greater than 65.4 µM. The TGI [49] was greater than 100 µM, the TGI [50] was greater than 31.6 µM and the TGI [51] was greater than 31.6 µM. It also gave a TGI [52] greater than 31.6 µM, a TGI [53] greater than 100 µM and a TGI [54] greater than 31.6 µM. It also gave a TGI [55] greater than 31.6 µM, a TGI [56] greater than 31.6 µM and a TGI [57] greater than 100 µM. The TGI [58] was greater than 100 µM.
Work on `COc1cc2c3c(n(C)c(=O)c2cc1OC)-c1cc2c(cc1/C3=C\CCCI)OCO2` yielded a TGI [1] greater than 100 µM, a TGI [2] greater than 100 µM and a TGI [3] greater than 100 µM. For the same molecule, the TGI [4] was greater than 100 µM, the TGI [5] was greater than 100 µM and the TGI [6] was greater than 100 µM. The TGI [7] was greater than 95.4 µM, the TGI [8] was greater than 100 µM and the TGI [9] was greater than 95.3 µM. The TGI [10] was greater than 100 µM, the TGI [11] was greater than 100 µM and the TGI [12] was greater than 100 µM. The TGI [13] was greater than 74.6 µM, the TGI [14] was greater than 100 µM and the TGI [59] was greater than 100 µM. For the same molecule, the TGI [15] was greater than 100 µM, the TGI [16] was greater than 100 µM and the TGI [17] was greater than 100 µM. For the same molecule, the TGI [18] was greater than 100 µM, the TGI [19] was greater than 41.6 µM and the TGI [20] was greater than 100 µM. The TGI [21] was greater than 100 µM, the TGI [22] was greater than 100 µM and the TGI [23] was greater than 100 µM. For the same molecule, the TGI [24] was greater than 100 µM, the TGI [25] was greater than 85.6 µM and the TGI [26] was greater than 100 µM. It also gave a TGI [27] greater than 46.7 µM, a TGI [28] greater than 52 µM and a TGI [29] greater than 100 µM. It also gave a TGI [30] greater than 100 µM, a TGI [31] greater than 36.3 µM and a TGI [32] greater than 100 µM. The TGI [33] was greater than 100 µM, the TGI [34] was greater than 100 µM and the TGI [35] was greater than 75.5 µM. The TGI [36] was greater than 100 µM, the TGI [37] was greater than 100 µM and the TGI [38] was greater than 100 µM. It also gave a TGI [39] greater than 100 µM, a TGI [40] greater than 100 µM and a TGI [41] greater than 100 µM. For the same molecule, the TGI [42] was greater than 100 µM, the TGI [43] was 23.2 µM and the TGI [44] was greater than 100 µM. For the same molecule, the TGI [45] was greater than 100 µM, the TGI [46] was greater than 85.3 µM and the TGI [47] was greater than 100 µM. The TGI [48] was greater than 100 µM, the TGI [49] was greater than 100 µM and the TGI [50] was greater than 100 µM. It also gave a TGI [51] greater than 100 µM, a TGI [52] greater than 100 µM and a TGI [53] greater than 100 µM. For the same molecule, the TGI [54] was greater than 100 µM, the TGI [55] was greater than 93.3 µM and the TGI [56] was greater than 100 µM. It also gave a TGI [57] greater than 100 µM and a TGI [58] greater than 100 µM.
With `O=c1oc2ccccc2cc1-c1cn2c(n1)sc1ccccc12` the TGI [1] was 34.3 µM, the TGI [2] was greater than 100 µM and the TGI [3] was greater than 100 µM. The TGI [4] was greater than 100 µM, the TGI [5] was greater than 100 µM and the TGI [6] was greater than 100 µM. The TGI [7] was greater than 100 µM, the TGI [9] was greater than 100 µM and the TGI [10] was greater than 100 µM. The TGI [11] was greater than 100 µM, the TGI [12] was greater than 100 µM and the TGI [13] was greater than 100 µM. It also gave a TGI [14] greater than 100 µM, a TGI [59] greater than 100 µM and a TGI [15] greater than 100 µM. It also gave a TGI [16] greater than 100 µM, a TGI [17] greater than 100 µM and a TGI [18] greater than 100 µM. For the same molecule, the TGI [19] was greater than 100 µM, the TGI [20] was greater than 100 µM and the TGI [21] was greater than 100 µM. The TGI [22] was greater than 100 µM, the TGI [23] was greater than 100 µM and the TGI [24] was greater than 100 µM. For the same molecule, the TGI [25] was greater than 100 µM, the TGI [26] was greater than 100 µM and the TGI [27] was greater than 100 µM. The TGI [28] was greater than 100 µM, the TGI [29] was greater than 100 µM and the TGI [30] was greater than 100 µM. The TGI [31] was greater than 100 µM, the TGI [32] was greater than 100 µM and the TGI [33] was greater than 100 µM. For the same molecule, the TGI [34] was greater than 100 µM, the TGI [35] was greater than 100 µM and the TGI [36] was greater than 100 µM. It also gave a TGI [37] greater than 100 µM, a TGI [38] greater than 100 µM and a TGI [39] greater than 100 µM. For the same molecule, the TGI [41] was greater than 100 µM, the TGI [42] was greater than 100 µM and the TGI [43] was greater than 100 µM. The TGI [44] was 77.4 µM, the TGI [46] was greater than 100 µM and the TGI [48] was greater than 100 µM. For the same molecule, the TGI [49] was 11.8 µM, the TGI [50] was greater than 100 µM and the TGI [51] was greater than 100 µM. For the same molecule, the TGI [52] was greater than 100 µM, the TGI [53] was greater than 100 µM and the TGI [54] was greater than 100 µM. The TGI [56] was greater than 100 µM, the TGI [57] was greater than 100 µM and the TGI [58] was greater than 100 µM.
